Data: patent publication US9259487B2, “Transgenic non-human animal model of neurodegenerative disease” (Nagasaki University, priority 2011, dated 2016)

Experiments:
Format in all cases: in vivo, mouse
[1] = tested on: GgFF mice; assay: Rotarod dwelling time (30 rpm, 40 rpm) of aged mice deficient in prothymosin α in striatum
[2] = tested on: GgFF mice; assay: Clasping reflex score of aged mice deficient in prothymosin α in striatum
[3] = tested on: GgFF mice; assay: Survival ratio after 15-min transient middle cerebral artery occlusion (tMCAO); details: 8- to 16-week-old GgFF mice, administration group
[4] = tested on: GgFF mice; assay: Rotarod dwelling time (motility function) after 15-min tMCAO; details: 8- to 16-week-old GgFF mice, selegiline 10 mg/kg intraperitoneally after 15-min tMCAO, 6 rpm and 12 rpm
[5] = tested on: GgFF mice; assay: Clinical score (motility dysfunction) after 15-min tMCAO; details: 8- to 16-week-old GgFF mice, selegiline 10 mg/kg intraperitoneally after 15-min tMCAO

Cl.Oc1cc2c(cc1O)C(c1ccccc1)CNCC2 (racemic) [SKF38393, (±)-1-phenyl-2,3,4,5-tetrahydro-1H-3-benzazepine-7,8-diol HCl]
motility dysfunction in the Rotarod test ([1]; 20- to 30-week-old GgFF mice, 5 hr after intraperitoneal administration of 30 mg/kg, 30 rpm, vs vehicle): significantly improved

CC12CC3CC(C)(C1)CC(N)(C3)C2 [memantine]
symptom (motility function by Rotarod), chronic administration ([1]; aged GgFF mice, memantine 10 mg/kg intraperitoneally every day from Day 1 to Day 7, 30 rpm and 40 rpm): remarkable recovery | motility function, acute (within 24 hr) ([1]; aged GgFF mice, memantine 10 mg/kg intraperitoneally, 24 hr after the administration): most recovered | symptom (clasping scores), chronic administration ([2]; memantine 10 mg/kg intraperitoneally every day from Day 1 to Day 7): remarkable recovery

CCCN[C@H]1CCc2nc(N)sc2C1 [pramipexole]
survival ratio ([3]; pramipexole 0.01 mg/kg intraperitoneally after 15-min tMCAO): 75%

C#CCN(C)[C@H](C)Cc1ccccc1 [selegiline]
motility function (dwelling time on Rotarod, Latency to fall) vs non-administration group [4]: improved motility function | survival ratio ([3]; selegiline 10 mg/kg intraperitoneally after 15-min tMCAO): markedly-improved | dwelling time on the Rotarod vs before administration, acute (within 24 hr) ([1]; aged GgFF mice, selegiline 10 mg/kg intraperitoneally, 30 rpm and 40 rpm): tended to be long | motility dysfunction (Clinical score) [5]: remarkably improved | clasping scores vs before administration, acute (within 24 hr) ([2]; selegiline 10 mg/kg intraperitoneally): tended to improve
